Read-outs that look alike come from different tables or passages of the source.
How the values were obtained:
serotonin (5-HT) release = assay: Serotonin (5-HT) release; details: data on file
[1] = system: dopamine transporter (DAT) / serotonin transporter (SERT); details: cited from earlier work
[2] = cited from earlier work; for Tmax (plasma): after administration of 125 mg MDMA to healthy subjects; for elimination half-life: human plasma
healthy subjects [3] = details: cited from earlier work; for duration of self-reported effects: MDA 1.4 mg/kg orally, indirect comparison with MDMA from different subjects and studies
5-HT2A receptor = 5-HT2A receptor (Homo sapiens, UniProt P28223)
[4] = receptor studies and limited pre-clinical evidence; cited from earlier work
healthy subjects [5] = details: cited from earlier work
humans = details: cited from earlier work
[6] = relative dopamine over serotonin transporter inhibition potency ratio, literature values
[7] = vs d-amphetamine, equivalent doses

5-HT2A receptor, sequence (P28223 whole entry): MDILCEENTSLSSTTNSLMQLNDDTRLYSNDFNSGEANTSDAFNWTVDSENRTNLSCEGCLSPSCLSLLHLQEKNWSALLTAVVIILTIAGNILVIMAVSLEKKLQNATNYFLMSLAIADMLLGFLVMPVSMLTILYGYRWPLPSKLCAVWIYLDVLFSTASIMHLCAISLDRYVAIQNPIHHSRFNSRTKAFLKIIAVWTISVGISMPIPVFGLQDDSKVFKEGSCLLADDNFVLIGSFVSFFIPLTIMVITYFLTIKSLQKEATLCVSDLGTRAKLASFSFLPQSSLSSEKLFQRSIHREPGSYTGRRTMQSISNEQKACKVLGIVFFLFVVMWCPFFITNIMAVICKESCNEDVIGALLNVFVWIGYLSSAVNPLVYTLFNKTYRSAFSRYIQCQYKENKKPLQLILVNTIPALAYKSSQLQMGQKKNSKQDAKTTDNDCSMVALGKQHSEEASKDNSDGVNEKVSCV

CC(N)Cc1ccc2c(c1F)OCO2 (stereo not shown) [2F-MDA]
5-HT release (serotonin (5-HT) release): release 5-HT

CC(N)Cc1ccc2occc2c1 (stereo not shown) [5-APB, 5-(2-aminopropyl)-benzofuran]
DAT/SERT ratio [1, 6]: 0.05

CC(N)Cc1cc(F)c2c(c1)OCO2 (stereo not shown) [5F-MDA]
5-HT release (serotonin (5-HT) release): release 5-HT

CC(N)Cc1ccc2ccoc2c1 (stereo not shown) [6-APB, 6-(2-aminopropyl)-benzofuran]
DAT/SERT ratio [1, 6]: 0.29

CC(N)Cc1cc2c(cc1F)OCO2 (stereo not shown) [6F-MDA]
5-HT release (serotonin (5-HT) release): release 5-HT

CCC(N)Cc1ccc2c(c1)OCO2 (stereo not shown) [BDB, 1-(1,3-benzodioxol-5-yl)-2-aminobutane]
5-HT release (serotonin (5-HT) release): release 5-HT

CCC(Cc1ccc2c(c1)OCO2)NC (stereo not shown) [MBDB, 1-(1,3-benzodioxol-5-yl)-methyl-2-butanamine]
DAT/SERT ratio [1, 6]: 0.09

CC(N)Cc1ccc2c(c1)OCO2 (stereo not shown) [MDA, 3,4-methylenedioxyamphetamine]
Tmax (plasma) [2]: 4.7 h
Peak plasma concentration of MDA relative to that of MDMA ([2]; after administration of MDMA): 7-10%
elimination half-life [2]: 10 to 16 h
duration of self-reported effects (healthy subjects [3]): up to 8 hours
perceptual changes on the 5-Dimensions of Altered States of Consciousness Scale (healthy subjects [3]; MDA vs MDMA, indirect comparison): greater perceptual changes than MDMA
EC50 (5-HT2A receptor; read-out: EC50 of 5-HT2A receptor activation; Rickli et al., 2015b; cited from earlier work): 0.63 µM
DAT/SERT ratio [1]: 0.24

NC1Cc2cc3c(cc2C1)OCO3 [MDAI, 5,6-methylenedioxy-2-aminoindane]
DAT/SERT ratio [1]: 0.2

CNC(C)Cc1ccc2c(c1)OCO2 (stereo not shown) [MDMA, 3,4-Methylenedioxymethamphetamine]
Tmax (plasma) [2]: 2.6 h
elimination half-life [2]: 7 to 10 h
duration of self-reported effects (healthy subjects [3]): ≤ 6 h
EC50 (5-HT2A receptor; Rickli et al., 2015b; read-out: EC50 of 5-HT2A receptor activation; cited from earlier work): 6.1 µM
DAT/SERT ratio [1]: 0.08

CN[C@H](C)Cc1ccc2c(c1)OCO2 [R(-)-MDMA]
efficacy as a releaser of dopamine [4]: low efficacy
hyperthermia [4]: does not produce hyperthermia

C[C@@H](Cc1ccccc1)NC(=O)[C@@H](N)CCCCN [lisdexamfetamine]
maximal effect (Emax) or area under the effect-time curve (AUEC) (healthy subjects [5]; lisdexamfetamine vs d-amphetamine): no differences
maximal concentrations of amphetamine (healthy subjects [5]; [7]): no differences
onset and peak times of the amphetamine concentration-time curve (healthy subjects [5]; [7]): longer
Tonset of blood pressure-time curve (healthy subjects [5]; vs d-amphetamine): significantly longer
blood pressure increase (humans; 100 mg lisdexamfetamine oral vs d-amphetamine, FIG. 9): increased more slowly and later
ratings of liking (humans; oral, vs equivalent dose of d-amphetamine, FIG. 8): lower
